Experimental data taken from publication PMC11274883, “Anticancer Effect of Pt^[sequence], Pt^II5MESS, Pt^II56MESS and Their Platinum(IV)-Dihydroxy Derivatives against Triple-Negative Breast Cancer and Cisplatin-Resistant Colorectal Cancer” (Cancers, 2024).

Legend:
Format in all cases: cell-based
[1] = tested on: ADDP; experiment: WST-1 cytotoxicity, 72 h
Procedure: (§1) Cells were seeded in 96-well flat-bottom culture plates at a concentration of 1000 cells per well. […] After 72 h, the medium was removed and replaced with new medium. The cell viability reagent WST-1 (10 µL, Roche Diagnostics, Indianapolis, IN, USA) was added to each well. After an hour, the absorbance was measured at 450 nm using a versatile microplate reader (Bio-strategy, Campbellfield, VIC, Australia). Three separate experiments were performed, each with n = 3 replicates. GraphPad prism 10 was used to calculate apparent IC50 values using the nonlinear regression model Y = Bottom + (Top-Bottom)/(1 + 10^(X-LogIC50)) where Top and bottom are plateaus in the y-axis (% survival).

[2] = tested on: MCF−7; experiment: WST-1 cytotoxicity, 72 h
Procedure: as §1

[3] = tested on: MDA−MB−231; experiment: WST-1 cytotoxicity, 72 h
Procedure: as §1

[4] = tested on: HT29 cells; experiment: Cellular uptake of Pt by ICP-MS; settings: for Intracellular Concentration: HT29, 3 µM; for Intracellular/extracellular ratio: HT29, extracellular 3 µM
Procedure: (§2) A final concentration of 10^6 cells/well of MDA−MB−231 and HT29 cells were seeded in 6-well plates and incubated overnight to adhere. The cells were then treated with a final concentration of 3 µM of either Pt^II or Pt^IV complexes. After 0, 0.5, 1, 3, 6, 12, 24 or 30 h, the medium was removed, and the cells were washed three times with cold PBS and allowed to dry. Then, 400 µL of 69% HNO3 (Baseline grade nitric acid with PPB level reported impurities, Seastar Chemicals, Sidney, BC, Canada) was added to each well for 90 min to ensure complete digestion. […] Iridium 193 (^193Ir) was mixed online and introduced into the ICP-MS to check uptake efficiency and matrix interference. All ICP-MS parameters are described in Table S2 and elaborated in Method S3. The results represent an average of three different experiments run in triplicate (±SEM) and expressed as nmol/10^6 cells or µM/cell. Quantification of the cellular uptake of Pt was based on external standards (Certified Standard from Sigma-Aldrich, VIC, Australia) containing Internal standard Ir.
(§3) Method S3. Cellular Uptake of Platinum(II) and (IV) complexes
(§4) A final concentration of 10^6 cells/well of MDA−MB−231 and HT29 cells were seeded in 6-well plates and incubated overnight to adhere. The cells were then treated with a final concentration of 3 µM of either PtII or PtIV complexes. After 0, 0.5, 1, 3, 6, 12, 24 or 30 h, the medium was removed, and the cells were washed three times with cold PBS and allowed to dry. Then, 400 µL of 69% HNO3 (Baseline grade nitric acid with Instrument Quality Grade Nitric acid with ppb level reported impurities, Seastar Chemicals, Sidney, Canada) was added to each well for 90 mins to ensure complete digestion. The digests were then moved to trace -metal free 15 mL centrifuge tubes […]
(§5) concentration of 3.5-4%. Iridium 193 (193Ir), selected as internal standard, has similar first ionisation potential and mass to Platinum 195 (195Pt). A concentration of 50 ppb 193Ir in 2% HNO3 solution was chosen for the Perkin Elmer NexION® Inductively Coupled Plasma Mass Spectrometer (ICP-MS) as it produced a steady state signal intensity of 600-800K counts per second. Mixing and injection of sample and internal standard solution was carried out using an ESI 7 port Valve system (Elemental Scientific, USA). A high-quality Solvent Flex 2 stop pump with 0.38 mm ID tubing was used in conjunction with the ICP-MS’s Peristaltic pump set at 20 […]
(§6) standard both, at 0.25 mL/min) being 0.5 mL/min. The ICP-MS was tuned to high sensitivity settings to facilitate detection of low Pt concentrations in samples. This was done by adjusting the nebuliser gas flow between […] to achieve maximum Indium 115 intensity whilst maintaining an acceptable average oxide and doubly charged ratio of 1.64-2.24% and 1.17-1.69% respectively. The analysis method was set to peak hopping mode with a dwell time of […] and 45 sweeps through the mass spectrum per sample read. […]
(§7) peak integration time of 4500 milliseconds and enabled the collection of numerous data points for peak integration thereby increasing accuracy. The ICP-MS was tuned daily, and its performance optimised to a set of suppliers recommended settings. Analysis was only carried out when optimal oxide and doubly charged ratios with high ionic sensitivity was achieved. All ICP-MS parameters are described in Table S2. The results represent an average of three different experiments run in triplicates (± SEM) and expressed as nmol/106 cells or µM/cell. Quantification of the cellular uptake of Pt was based on external standards (Certified Standard from Sigma-Aldrich NSW, Australia) containing Internal standard Ir. […]

[5] = tested on: MDA−MB−231 cells; experiment: Cellular uptake of Pt by ICP-MS; settings: for Intracellular Concentration: MDA−MB−231, 3 µM; for Intracellular/extracellular ratio: MDA−MB−231, extracellular 3 µM
Procedure: as §2, §3, §4, §5, §6, §7

[6] = tested on: HT29 cells; experiment: TMRE mitochondrial membrane potential assay; settings: complexes at IC50, FCCP 20 µM
Method in brief: (§8)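 Cells treated with each complex at its IC50 concentration for 24, 48 or 72 h, then stained with 1 µM TMRE for 30 min and washed before fluorescence scanning. Three independent experiments in triplicate.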

[7] = tested on: MDA−MB−231 cells; experiment: TMRE mitochondrial membrane potential assay; settings: complexes at IC50, FCCP 20 µM
Method in brief: as §8

In the case of `Cc1c(C)c2cccnc2c2ncccc12.N[C@H]1CCCC[C@@H]1N.O=[N+]([O-])[O-].O=[N+]([O-])[O-].[Pt+2]` [Pt^II56MESS, [Pt(5,6-dimethyl-1,10-phenanthroline)(1S,2S-diaminocyclohexane)](NO3)2], the “potency relative to cisplatin” value ([1]; ADDP, 72 h) is reported as 147 fold, the IC50 ([1]; ADDP, 72 h, mean ± SEM) is reported as 760 ± 1270 nM and the “Selective cytotoxicity index (SCI)” value ([1]; IC50 MCF10A/IC50 ADDP) is reported as 0.54. For the same compound, the “Selective cytotoxicity index (SCI)” value ([2]; IC50 MCF10A/IC50 MCF−7) was 0.73, the “potency relative to cisplatin” value ([2]; MCF−7, 72 h) was 59 fold and the IC50 ([2]; MCF−7, 72 h, mean ± SEM) was 560 nM. For the same compound, the “Selective cytotoxicity index (SCI)” value ([3]; IC50 MCF10A/IC50 MDA−MB−231) was 2.93, the “potency relative to cisplatin” value ([3]; MDA−MB−231, 72 h) was 93 fold and the IC50 ([3]; MDA−MB−231, 72 h, mean ± SEM) was 140 nM. For the same compound, the “Intracellular Concentration” value ([4]; 0 h) was 0.45 nmol/10^6 cells, the “Intracellular Concentration” value ([4]; 0.5 h) was 0.87 nmol/10^6 cells and the “Intracellular Concentration” value ([4]; 1 h) was 1.38 nmol/10^6 cells. For the same compound, the “Intracellular Concentration” value ([4]; 3 h) was 2.23 nmol/10^6 cells, the “Intracellular Concentration” value ([4]; 6 h) was 5.05 nmol/10^6 cells and the “Intracellular Concentration” value ([4]; 12 h) was 17.67 nmol/10^6 cells. For the same compound, the “Intracellular Concentration” value ([4]; 24 h) was 23.28 nmol/10^6 cells, the “Intracellular Concentration” value ([4]; 30 h) was 24.85 nmol/10^6 cells and the “intracellular/extracellular ratio relative to the maximum ratio of cisplatin” value ([4]; HT29, 30 h) was 34.8 fold. For the same compound, the Intracellular/extracellular ratio ([4]; 0 h) was 70.93, the Intracellular/extracellular ratio ([4]; 0.5 h) was 136.74 and the Intracellular/extracellular ratio ([4]; 1 h) was 216.82. For the same compound, the Intracellular/extracellular ratio ([4]; 3 h) was 350.73, the Intracellular/extracellular ratio ([4]; 6 h) was 793.80 and the Intracellular/extracellular ratio ([4]; 12 h) was 2776.28. For the same compound, the Intracellular/extracellular ratio ([4]; 24 h) was 3657.59, the Intracellular/extracellular ratio ([4]; 30 h, listed as 56MESS) was roughly 3904 and the Intracellular/extracellular ratio ([4]; 30 h, listed as PtII56MESS) was 3903.51. The “drug's concentration per cell” value ([4]; per HT29 cell, cell volume 1.7 pL, starting concentration 3 µM) was ~11,711 µM, the “Intracellular Concentration” value ([5]; 0 h) was 0.68 nmol/10^6 cells and the “Intracellular Concentration” value ([5]; 0.5 h) was 0.58 nmol/10^6 cells. For the same compound, the “Intracellular Concentration” value ([5]; 1 h) was 0.78 nmol/10^6 cells, the “Intracellular Concentration” value ([5]; 3 h) was 1.24 nmol/10^6 cells and the “Intracellular Concentration” value ([5]; 6 h) was 1.88 nmol/10^6 cells. For the same compound, the “Intracellular Concentration” value ([5]; 12 h) was 4.80 nmol/10^6 cells, the “Intracellular Concentration” value ([5]; 24 h) was 5.38 nmol/10^6 cells and the “Intracellular Concentration” value ([5]; 30 h) was 11.24 nmol/10^6 cells. The “intracellular/extracellular ratio relative to the maximum ratio of cisplatin” value ([5]; MDA−MB−231, 30 h) was 8.7 fold, the Intracellular/extracellular ratio ([5]; 0 h) was 107.16 and the Intracellular/extracellular ratio ([5]; 0.5 h) was 92.36. For the same compound, the Intracellular/extracellular ratio ([5]; 1 h) was 122.42, the Intracellular/extracellular ratio ([5]; 3 h) was 195.59 and the Intracellular/extracellular ratio ([5]; 6 h) was 296.93. For the same compound, the Intracellular/extracellular ratio ([5]; 12 h) was 754.52, the Intracellular/extracellular ratio ([5]; 24 h) was 845.27 and the Intracellular/extracellular ratio ([5]; 30 h) was 1765.95 ± 526.75. For the same compound, the Intracellular/extracellular ratio ([5]; 30 h, listed as 56MESS) was “around 1766”, the Intracellular/extracellular ratio ([5]; 30 h, listed as PtII56MESS) was 1765.95 and the “drug's concentration per cell” value ([5]; per MDA−MB−231 cell, cell volume 1.7 pL, starting concentration 3 µM) was “about 5298 µM”. The “MtMp (mitochondrial membrane potential)” value ([6]; HT29, 24 h) was 159.93 RFU, the “MtMp (mitochondrial membrane potential)” value ([6]; HT29, 48 h) was 151.44 RFU and the “MtMp (mitochondrial membrane potential)” value ([6]; HT29, 72 h) was 102.76 RFU. For the same compound, the “MtMp (mitochondrial membrane potential)” value ([7]; MDA−MB−231, 24 h) was 155.45 RFU, the “MtMp (mitochondrial membrane potential)” value ([7]; MDA−MB−231, 48 h) was 131.53 RFU and the “MtMp (mitochondrial membrane potential)” value ([7]; MDA−MB−231, 72 h) was 86.51 RFU.
